Results as given in patent US10292949B2, “Pharmaceutical composition comprising rimeporide for treating diseases associated with insulin resistance and β-cell dysfunction” (Merck Patent GmbH, priority 2008, dated 2019).
Counter-ions that a name gives are not always drawn.

What was measured:
Type in all cases: in vivo, rat
[1] = Pharmacological Study Report I: body weight of ZF (fa/fa) rats during 4 weeks of treatment; conditions: age 8-12 weeks, Compound A 150 mg/kg gavage twice daily, Compound B 40 mg/kg/day in chow
Description: (§1) Obese, insulin resistant ZF (fa/fa) rats, which are treated from the age of 8-12 weeks, were used as IR model. Rats were housed with a 12-h light/dark cycle and free access to food and water unless otherwise noted. Studies were approved by the Institutional Animal Care and Use Committee. There were a total of 18 animals in the study (8 week-old males, provided by Charles River). Animals were randomized into 3 groups (vehicle group, Compound A group, Compound B group, n=6 per group) based on random glucose level at the beginning of the study: • Group 1: ZF rats (fa/fa) (n=6), compound A (150 mg/kg via gavage) • Group 2: ZF rats (fa/fa) (n=6), compound B (40 mg/kg/day as admixture to the chow) • Group 3: ZF rats (fa/fa) (n=6), vehicle treatment (control chow, vehicle gavage)
(§2) Group 1 and 3 animals were treated with compound A or vehicle (water) for 4 weeks (from age 8-12 weeks) via oral gavage, twice daily. Chow containing compound B was fed to Group 2 ad lib. Group 1 and Group 3 were fed with chow without compound B ad lib.

obese Zucker fa/fa rats [2] = experiment: Pharmacological Study Report II: HbA1c levels; conditions: Mean ± SD; for Base line HbA1c: baseline; for Change in HbA1c: change over the 4 week treatment period; for Week 4 HbA1c: week 4 of treatment
Description: (§3) Thirty-six obese Zucker fa/fa and six lean Zucker fa/? male rats obtained from Charles River, were housed under normal vivarium conditions on a 12 hour light/dark cycle. The rats were kept two to a cage with food and water available ad lib, except during the weekly, 4 hour fasts. Water continued to be available during these fasts.
(§4) Compound A corresponds to Cariporide. Compound B corresponds to 2-Methyl-4,5-di-(methylsulfonyl)-benzoyl-guanidine hydrochloride hydrate. Compounds A and B were supplied in powder form by Merck Serono. Drugs were incorporated into a pelleted diet (LabDiet, 5001) by Research Diets, Inc (New Brunswick, N.J.) at concentrations of 0.44 g/kg or 0.88 g/kg of diet to yield approximate doses of 40 or 80 mg/kg. The concentration was calculated based on the assumption that a 300 g rat would eat about 30 g/d of chow. The same chow, but without drug, was fed to rats of both the lean and fa/fa control group animals.
(§5) One week prior to the start of the study, all rats were weighed. After a 4 hour fast, a blood sample was obtained for the determination of blood glucose, insulin, and glycosylated hemoglobin levels (HbA1c). Animals were then sorted on the basis of these parameters into the groups listed below. Rats were eight weeks of age at the onset of treatment.
(§6) • 1. ZF rats (fa/fa) (n=6) chow without drug • 2. ZF rats (fa/fa) (n=6) compound A (40 mg/kg/day) • 3. ZF rats (fa/fa) (n=6) compound A (80 mg/kg/day) • 4. ZF rats (fa/fa) (n=6) compound B (40 mg/kg/day) • 5. ZF rats (fa/fa) (n=6) compound B (80 mg/kg/day) • 6. lean Zucker rats (fa/?) (n=6) chow without drug Dosing Regime
(§7) Treatment appropriate chow was continuously available for 4 weeks except during scheduled 4 h fasts conducted once per week.
HbA1c level were determined using a DCA 2000 analyzer (Bayer Healthcare LLC, Elkhart Ind.) prior to beginning the study and again at the end of the 4th week treatment period.

[3] = test system: Obese, insulin resistant ZF (fa/fa) rats; experiment: Pharmacological Study Report I: deuterated glucose disposal test (2H-GDT); conditions: 4 weeks, Compound B 40 mg/kg/day in chow
Description: as §1, §2
Rats underwent a 4 hour fast. […] At t=0, the blood glucose concentrations were determined with a glucometer, and a blood sample was obtained for determination of base line insulin and H2O^18 dilution. […]
One hundred micro liter aliquots of plasma samples inside the cape of an inverted vial were placed in a heating blocked filled with glass beads at 70° C. overnight and the water distillate inside the vial was collected. The deuterium and oxygen-18 isotope ratios of the blood of plasma samples were determined using a Thermo Finnigan High Temperature Conversion/Elemental Analyzer coupled with a Thermo Finnigan MAT 253 IRMS via a Conflo-III Interface. […] The deuterium isotope abundance is first calculated in δ 2H values relative to the international VSMOW standard, and then transformed to APE by using a calibration curve of standards with known enrichments. The ^2H2O enrichment was calculated for rats at 30 min after the glucose load. ^2H2O enrichment was converted to mmoles by multiplying enrichment by the TBW pool size and dividing by 20 (MW ^2H2O). […]

obese Zucker fa/fa rats [4] = experiment: Pharmacological Study Report II: random and fasting (4 h) blood glucose and plasma insulin levels; conditions: Mean ± SD; for Change in Insulin (fasting): change over the 4 week treatment period; for Week 4 Insulin (fasting): week 4 of treatment
Description: as §3, §4, §5, §6, §7
Both random and fasting (4 h) blood glucose levels were determined using a hand-held glucometer (OneTouch Ultra, Lifescan, Inc. Milapitas, Calif.) on blood obtained from tail capillary samples. Plasma insulin levels were determined by a rat specific ELISA (Ultra Sensitive Rat Insulin ELISA Kit, Crystal Chem, Inc., Chicago, Ill.). The 4 h fast period started at 9 a.m. and ended after a blood draw at 1 p.m.

[5] = Pharmacological Study Report II: body weight and food intake; conditions: for Average food consumption, Week 1 / Average food consumption, Week 2 / Average food consumption, Week 3 / Average food consumption, Week 4: fa/fa rats, average +/- SD
Description: as §3, §4, §5, §6, §7
individual body weights were determined once per week. Average food intake per cage was also determined once per week and the individual rat consumption was calculated by dividing the cage average by 2 (rats housed 2/cage).

**Q.** What does the source list for `[H]/N=C(\N)NC(=O)c1cc(S(C)(=O)=O)c(S(C)(=O)=O)cc1C` [Compound B, 2-Methyl-4,5-di-(methylsulfonyl)-benzoyl-guanidine hydrochloride hydrate]?
**A.** Body weight, difference among vehicle- and compound-treated groups [1]: no significant differences; Base line HbA1c (obese Zucker fa/fa rats [2]; 40 mg/kg group): 3.8 ± 0.2%; Base line HbA1c (obese Zucker fa/fa rats [2]; 80 mg/kg group): 4.0 ± 0.4%; Change in HbA1c (obese Zucker fa/fa rats [2]; 40 mg/kg): 0.4 ± 0.2%; Change in HbA1c (obese Zucker fa/fa rats [2]; 80 mg/kg): 0.8 ± 0.7%; Week 4 HbA1c (obese Zucker fa/fa rats [2]; 40 mg/kg in chow): 4.3 ± 0.3%; Week 4 HbA1c (obese Zucker fa/fa rats [2]; 80 mg/kg in chow): 4.8 ± 0.4 %; Insulin sensitivity (% 2H2O recovery per insulin AUC), increase compared to pre-treatment values [3]: ~4 fold; Baseline Insulin (fasting) (obese Zucker fa/fa rats [4]; 40 mg/kg group): 14.7 ± 2.7 ng/mL; Baseline Insulin (fasting) (obese Zucker fa/fa rats [4]; 80 mg/kg group): 16.2 ± 11.2 ng/mL; Change in Insulin (fasting) (obese Zucker fa/fa rats [4]; 40 mg/kg): -0.2 ± 4.4 ng/mL; Change in Insulin (fasting) (obese Zucker fa/fa rats [4]; 80 mg/kg): -3.2 ± 11.2 ng/mL; Week 4 Insulin (fasting) (obese Zucker fa/fa rats [4]; 40 mg/kg in chow): 14.5 ± 5.5 ng/mL; Week 4 Insulin (fasting) (obese Zucker fa/fa rats [4]; 80 mg/kg in chow): 13.1 ± 8.2 ng/mL; Average weekly food intake vs chow fed fa/fa controls ([5]; Zucker fa/fa rats, 4 weeks, 40 or 80 mg/kg in chow): did not differ significantly; Average food consumption, Week 1 ([5]; 40 mg/kg in chow): 32.1 +/− 3.2 grams; Average food consumption, Week 2 ([5]; 40 mg/kg in chow): 33.8 +/− 2.9 grams; Average food consumption, Week 3 ([5]; 40 mg/kg in chow): 31.7 +/− 2.9 grams; Average food consumption, Week 4 ([5]; 40 mg/kg in chow): 33.6 +/− 4.4 grams; Average food consumption, Week 1 ([5]; 80 mg/kg in chow): 31.8 +/− 1.4 grams; Average food consumption, Week 2 ([5]; 80 mg/kg in chow): 32.9 +/− 1.9 grams; Average food consumption, Week 3 ([5]; 80 mg/kg in chow): 33.0 +/− 0.7 grams; Average food consumption, Week 4 ([5]; 80 mg/kg in chow): 34.0 +/− 2.9 grams
